Laboratory results: patent publication US5922582A, “Indole alkaloid type compound 0089-D” (HIGETA SHOYU Co., Ltd., priority 1998, dated 1999)
≈ marks a conversion by molar mass, not a printed value.

Assays:
[1] = system: Nocardia brasiliensis IFM 0089; experiment: Susceptibility to antibiotics of the producing strain; type: cell-based
Experimental: The present strain was cultured in a medium (brain heart infusion containing 2% glucose) at 250 rpm at 30° C. for 72 hours with shaking, and the cells grown in the medium was harvested by centrifugation (3000 rpm×10 minutes) and washed twice with distilled water. Further, the cells were washed with ethanol and then dried under vacuum to give the dried cells. The amino acid composition, sugar composition and lipid composition of the cell wall of this dried cells were examined on the basis of Bergey's Manual of Determinative Bacteriology, 9th ed., Williams, Baltimore, 1993. Meso-diaminopimelic acid was detected in the amino acid analysis, and arabinose and galactose were detected in the sugar analysis. The presence of mycolic acid was confirmed from the result of the lipid analysis, and its type was Nocardia type. Isoprenoid quinone, i.e., a cell lipid component was confirmed to contain MK-8 (H4) cycle as a major component. The present strain was identified as Nocardia brasiliensis, further from its ability to assimilate casein, hypoxanthine and tyrosine and from its production pattern of acid from sugar and its susceptibility pattern to antimicrobial agents as shown in Table 4 (Mikami & Yazawa, Susceptibility pattern of pathogenic Nocardia to some selected antimicrobial agents and their usefulness in the identification work in a clinical laboratory: Bull. JFCC "Bulltein of the Japan Federation for Culture Collections", 5: 89-95, 1989).

[2] = system: M. flavescens ATCC14474; experiment: Antimicrobial activity, MIC; type: cell-based; conditions: Mycolicibacterium flavescens; M. flavescens ATCC14474, Muller Hinton broth, 37° C., 24 hours
Experimental: (§1) The antimicrobial activity of compound 0089-D on various microorganisms was confirmed by determining minimum inhibitory concentration (MIC) on growth.
(§2) The MIC of compound 0089-D for various microorganisms was determined in a Muller Hinton broth (BBL) containing 0.2% glucose according to the regulations of the Japan Chemotherapy Association (The Essentials of Antibiotics, 4th ed., Tokyo University Press, 1992).
(§3) Each test microorganism was prepared at density of 1×10^6 cfu/ml in the above medium to prepare a test microorganism liquid.
(§4) The test sample (compound 0089-D) was dissolved in methanol and diluted in the above Muller Hinton broth by subjecting it to serial 2-fold dilution starting at the concentration of 1 mg/ml. 180 μl of the test microorganism liquid and 20 μl of the test sample solution were put through a pipette to a 96-well micro-titer plate and incubated at 37° C. 24 hours thereafter, growth was examined by the eye to determine MIC.

[3] = system: Nocardia transvalensis IFM0333; experiment: Antimicrobial activity, MIC; type: cell-based; conditions: Nocardia transvalensis IFM0333, Muller Hinton broth, 37° C., 24 hours
Experimental: as §1, §2, §3, §4

[4] = system: N. pseudobrasiliensis IFM0624; experiment: Antimicrobial activity, MIC; type: cell-based; conditions: N. pseudobrasiliensis IFM0624, Muller Hinton broth, 37° C., 24 hours
Experimental: as §1, §2, §3, §4

[5] = system: Mycobacterium smegmatis ATCC607; experiment: Antimicrobial activity, MIC; type: cell-based; conditions: Mycolicibacterium smegmatis; Mycobacterium smegmatis ATCC607, Muller Hinton broth, 37° C., 24 hours
Experimental: as §1, §2, §3, §4

[6] = system: Micrococcus luteus IFM2066; experiment: Antimicrobial activity, MIC; type: cell-based; conditions: Micrococcus luteus IFM2066, Muller Hinton broth, 37° C., 24 hours
Experimental: as §1, §2, §3, §4

[7] = system: N. farcinica IFM0284; experiment: Antimicrobial activity, MIC; type: cell-based; conditions: Nocardia farcinica; N. farcinica IFM0284, Muller Hinton broth, 37° C., 24 hours
Experimental: as §1, §2, §3, §4

[8] = system: Bacillus subtilis PCI189; experiment: Antimicrobial activity, MIC; type: cell-based; conditions: Bacillus subtilis PCI189, Muller Hinton broth, 37° C., 24 hours
Experimental: as §1, §2, §3, §4

[9] = system: N. brasiliensis IFM0236; experiment: Antimicrobial activity, MIC; type: cell-based; conditions: N. brasiliensis IFM0236, Muller Hinton broth, 37° C., 24 hours
Experimental: as §1, §2, §3, §4

[10] = system: N. otitidiscaviarum IFM0239; experiment: Antimicrobial activity, MIC; type: cell-based; conditions: N. otitidiscaviarum IFM0239, Muller Hinton broth, 37° C., 24 hours
Experimental: as §1, §2, §3, §4

[11] = system: M. phlei ATCC11758; experiment: Antimicrobial activity, MIC; type: cell-based; conditions: Mycolicibacterium phlei; M. phlei ATCC11758, Muller Hinton broth, 37° C., 24 hours
Experimental: as §1, §2, §3, §4

[12] = system: N. nova IFM0290; experiment: Antimicrobial activity, MIC; type: cell-based; conditions: N. nova IFM0290, Muller Hinton broth, 37° C., 24 hours
Experimental: as §1, §2, §3, §4

[13] = system: N. asteroides IFM0319; experiment: Antimicrobial activity, MIC; type: cell-based; conditions: Nocardia asteroides; N. asteroides IFM0319, Muller Hinton broth, 37° C., 24 hours
Experimental: as §1, §2, §3, §4

[14] = system: cultured tumor cells (P388, P388/ADR, L1210 and KB); experiment: Cytotoxicity on the cultured tumor cells, overall (MTT); type: cell-based; conditions: in words
Experimental: (§5) Cytotoxicity of compound 0089-D on cultured tumor cell lines, P388, adriamycin resistant P388 (P388/ADR), L1210 and KB was examined in the following manner.
(§6) L1210 was suspended in RPMI1640 medium, P388 and P388/ADR in RPMI1640 medium containing 20 μM of 2-mercaptoethanol, and KB in Dulbecco's MEM medium (any medium contained 10% fetal bovine serum) respectively whereby cell suspension (5.6×10^4 cells/ml) were prepared. The test sample was dissolved in methanol and diluted serially with each medium to give solutions containing the test sample at various concentrations. […] 72 hours thereafter, cell growth was measured by the following calorimetric assay method using 3-(4,5-dimethyl-2-thiazolyl)-2,5-diphenyl-2H-tetrazolium bromide (MTT).
(§7) That is, 20 μl of 2 mg/ml MTT solution was added to each well and the cells were incubated for 4 hours at 37° C. Thereafter, 50 μl of 50% dimethylformamide solution containing 20% sodium dodecyl sulfate was added to each well to dissolve the formed violet formazan crystal, and its absorbance at 570 nm was measured in a microplate reader (immunoreader) and used as an indicator of the growth. […]
(§8) Degree of inhibition=[1--(absorbance in the presence of test sample)/(absorbance in the absence of test sample)]×100

[15] = system: adriamycin-resistant P388 (P388/ADR) cells; experiment: Cytotoxicity on adriamycin resistant P388 (P388/ADR) (MTT); type: cell-based; conditions: 72 hours, read-out: IC50 (growth of tumor cells)
Experimental: as §5, §6, §7, §8

[16] = system: P388 cells; experiment: Cytotoxicity on cultured tumor cell line P388 (MTT); type: cell-based; conditions: Mus musculus, P388, 72 hours, read-out: IC50 (growth of tumor cells)
Experimental: as §5, §6, §7, §8

[17] = system: Candida albicans ATCC90028; experiment: Antimicrobial activity, MIC (fungi); type: cell-based; conditions: Candida albicans ATCC90028, Sabouraud's Dextrose liquid medium, 37° C., 24 hours
Experimental: as §1, §2
(§9) To determine MIC for fungi, Sabouraud's Dextrose liquid medium was used and the density of the test fungi was 1×10^4 cfu/ml.
as §4

[18] = system: Aspergillus niger ATCC40606; experiment: Antimicrobial activity, MIC (fungi); type: cell-based; conditions: Aspergillus niger ATCC40606, Sabouraud's Dextrose liquid medium, 37° C., 24 hours
Experimental: as §1, §2, §9, §4

[19] = system: KB cells; experiment: Cytotoxicity on cultured tumor cell line KB (MTT); type: cell-based; conditions: Homo sapiens, 72 hours, read-out: IC50 (growth of tumor cells)
Experimental: as §5, §6, §7, §8

[20] = Solubility; type: physicochemical
[21] = system: Micrococcus luteus; experiment: Paper disk method, growth inhibition of Micrococcus luteus; type: cell-based; conditions: nutrient agar, 30° C., 24 hours
Experimental: The resulting culture, 150 L, was filtered through a filter cloth whereby the cells were recovered. The operation of extracting the cells was carried out by adding 20 L methanol. The thus-obtained extract was concentrated and evaporated into dryness in an evaporator. 1 L distilled water was added to 4 g of the dried matter to give a suspension, which was then partitioned and extracted 3 times with 1 L of n-hexane. The n-hexane fraction, 3 L, was concentrated and evaporated into dryness in an evaporator, dissolved in 8 ml of an n-hexane:ethyl acetate mixture (20:1) and subjected to silica gel chromatography (column 6 cm×20 cm). After impurities were eluted with 2 L of an n-hexane : ethyl acetate mixture (20 1), compound 0089-D was eluted with 2 L of an n-hexane:ethyl acetate mixture (10:1). Detection of compound 0089-D in the eluted fraction was carried out using growth inhibitory activity on a test microorganism Micrococcus luteus as the indicator by the following paper disk method.
The eluted fraction was adsorbed onto a paper disk and placed on a nutrient agar medium (Difco) on which M. luteus had been spread, and then incubated at 30° C. for 24 hours.

[22] = system: L1210 cells; experiment: Cytotoxicity on cultured tumor cell line L1210 (MTT); type: cell-based; conditions: Mus musculus, L1210, 72 hours, read-out: IC50 (growth of tumor cells)
Experimental: as §5, §6, §7, §8

[23] = system: various microorganisms; experiment: Antimicrobial activity on various microorganisms, overall; type: cell-based; conditions: in words
Experimental: as §1, §2, §3, §9, §4

O=c1[nH]cc(F)c(=O)[nH]1 [Compound 5-FU, 5-FU]
Susceptibility to antibiotics [1]: negative

[C-]#[N+]C(=C\c1cn(C)c2ccccc12)/C=C/C(=C)C [Compound 0089-D]
MIC [2]: 3.13 µg/mL (≈ 12.6 µM)
MIC [3]: 3.13 µg/mL (≈ 12.6 µM)
MIC [4]: 3.13 µg/mL (≈ 12.6 µM)
MIC [5]: 0.78 µg/mL (≈ 3.14 µM)
MIC [6]: 3.13 µg/mL (≈ 12.6 µM)
MIC [7]: 12.5 µg/mL (≈ 50.3 µM)
MIC [8]: 3.13 µg/mL (≈ 12.6 µM)
MIC [9]: 25 µg/mL (≈ 101 µM)
MIC [10]: 6.25 µg/mL (≈ 25.2 µM)
MIC [11]: 1.56 µg/mL (≈ 6.28 µM)
MIC [12]: 1.56 µg/mL (≈ 6.28 µM)
MIC [13]: 12.5 µg/mL (≈ 50.3 µM)
cytotoxicity on the cultured tumor cells [14]: strong cytotoxicity
IC50 [15]: 0.56 µg/mL (≈ 2.26 µM)
IC50 [16]: 0.44 µg/mL (≈ 1.77 µM)
MIC [17]: 25 µg/mL (≈ 101 µM)
MIC [18]: 0.39 µg/mL (≈ 1.57 µM)
IC50 [19]: 0.75 µg/mL (≈ 3.02 µM)
Solubility ([20]; ether): Soluble
Solubility ([20]; ethyl acetate): Soluble
Solubility ([20]; hexane): Slightly soluble
Solubility ([20]; methanol): Soluble
Solubility ([20]; water): Insoluble
inhibition zone of growth [21]: inhibition zone of growth of M. luteus
IC50 [22]: 0.25 µg/mL (≈ 1.01 µM)
antimicrobial spectrum [23]: wide antimicrobial spectrum

C[C@@H](O)[C@H]1C(=O)N2C(C(=O)O)=C(SCCN=CN)C[C@H]12 [imipenem]
Susceptibility to antibiotics [1]: negative

NC[C@H]1O[C@H](O[C@H]2[C@H](O)[C@@H](O[C@H]3O[C@H](CO)[C@@H](O)[C@H](N)[C@H]3O)[C@H](N)C[C@@H]2N)[C@H](O)[C@@H](O)[C@@H]1O [kanamycin]
Susceptibility to antibiotics [1]: negative

NC[C@H]1O[C@H](O[C@H]2[C@H](O)[C@@H](O[C@H]3O[C@H](CO)[C@@H](O)[C@H](N)[C@H]3O)[C@H](N)C[C@@H]2N)[C@H](N)C[C@@H]1O [tobramycin]
Susceptibility to antibiotics [1]: positive
